Measurements reported in the supplement of paper PMC10290057.
Where a name gives a salt, the structure may show the parent alone.

Columns and labels:
HCT116 [1] = assay: AC50 cell viability (CellTiter-Glo); higher = less potent; conditions: 48 h
HCT116 [2] = assay: efficacy (fitted maximal change in viability relative to DMSO control); higher = less cytotoxic (negative = loss of viability); conditions: 48 h
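For AC50 cell viability (CellTiter-Glo) in this document: HCT116 colorectal carcinoma cells screened at five concentrations per compound, luminescent viability scaled between DMSO wells and empty wells on each plate, curves fitted per compound.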
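For efficacy (fitted maximal change in viability relative to DMSO control) in this document: Luminescence-based viability readout, five doses per compound, normalized against on-plate DMSO and empty-well controls, followed by dose-response curve fitting for every drug.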

Row | Compound | AC50 cell viability (HCT116 [1]) [µM] | efficacy (HCT116 [2]) [%]
1 | Cc1cc(Nc2ncc3c(n2)N(C)C(=O)N(c2cc(NC(=O)c4cccc(C(F)(F)F)c4)ccc2C)C3)n(C)n1 [Pluripotin] | 0.235 | -74
2 | CC[C@@H]([C@H](C)O)N1\N=C/N(C1=O)C2=CC=C(C=C2)N3CCN(CC3)C4=CC=C(OCC5CO[C@@](C5)(C[N]6C=NC=N6)C7=C(F)C=C(F)C=C7)C=C4 (stereo partly drawn) [Posaconazole] | 6.61 | -58.4
3 | C=CC(=O)N1CCC(Oc2cc3c(Nc4ccc(Cl)c(Cl)c4F)ncnc3cc2OC)CC1 [Poziotinib] | 18.6 | -106
4 | CCCCc1nc2cc(/C=C/C(=O)NO)ccc2n1CCN(CC)CC [Pracinostat] | 0.372 | -86.8
5 | C#CCC(Cc1cnc2nc(N)nc(N)c2n1)c1ccc(C(=O)N[C@@H](CCC(=O)O)C(=O)O)cc1 (stereo partly drawn) [Pralatrexate] | 0.00468 | -91.1
6 | COc1ccc(C(=O)c2c(C)n(CCN3CCOCC3)c3ccccc23)cc1 [Pravadoline] | 1.32 | -67.1
7 | COc1cccc(OCCCN)c1-c1cc(Nc2cnc(C#N)cn2)n[nH]1 [Prexasertib] | 3.72 | -111
8 | CC(=O)C1CCC2C3CC\C4=C\C(=O)CCC4(C)C3CCC12C (stereo not drawn) [Progesterone] | 16.6 | -53.8
9 | C[C@@H]1O[C@@H](O[C@@H]2C=C3CC[C@@H]4[C@H](CC[C@]5(C)[C@@H](c6ccc(=O)oc6)CC[C@]45O)[C@@]3(C)CC2)[C@H](O)[C@H](O)[C@H]1O [Proscillaridin] | 0.00833 | -82.5
10 | c1ccc2c(Oc3nc(Nc4ccc(N5CCOCC5)cc4)c4ncn(C5CCCCC5)c4n3)cccc2c1 [Purmorphamine] | 11.8 | -34.8
11 | CC(C)[C@H](CO)Nc1nc(Nc2cccc(Cl)c2)c2ncn(C(C)C)c2n1 [Purvalanol A] | 13.2 | -110
12 | NCCOc1cc(C(=O)Nc2cc(OCCN)c3ccccc3n2)nc(C(=O)Nc2cc(OCCN)c3ccccc3n2)c1 [Pyridostatin] | 18.6 | -78.9
13 | CCc1nc(N)nc(N)c1-c1ccc(Cl)cc1 [Pyrimethamine] | 3.32 | -88.5
14 | O=C(CCCCCCC(=O)Nc1cccnc1)NO [Pyroxamide] | 2.95 | -87.9
15 | OC[C@H](Cc1ccccc1)Nc1nc(Oc2ccc3c(c2)CCC3)nc2c1ncn2Cc1ccc(-c2ccccc2)cc1 [QS11] | 9.34 | -49.7
16 | CCN(CC)CCCC(C)Nc1c2ccc(Cl)cc2nc2ccc(OC)cc12.Cl.Cl.O.O (stereo not drawn) [Quinacrine] | 8.33 | -90.5
17 | Cn1cc(CNCC2CCN(c3ncc(C(=O)NO)cn3)CC2)c2ccccc21 [Quisinostat] | 0.0742 | -81.9
18 | CC(C)(C)c1cc(NC(=O)Nc2ccc(-c3cn4c(n3)sc3cc(OCCN5CCOCC5)ccc34)cc2)no1 [Quizartinib] | 13.2 | -74.1
19 | COc1cc(Nc2ncc(F)c(Nc3ccc4c(n3)NC(=O)C(C)(C)O4)n2)cc(OC)c1OC [R-406] | 3.72 | -30.6
20 | COc1ccc(F)c(F)c1C(=O)c1cnc(NC2CCN([S+](C)(=O)[O-])CC2)nc1N [R-547] | 0.417 | -67.8
21 | COC1=C(F)C=C\2C(=C1)\N=C/3NNC(=C3\N=C2C4=CC=CC=C4Cl)/C [R-1530] | 14.8 | -73.2
22 | FC(F)(F)c1ccc(Nc2nc3cc(Oc4ccnc(-c5ncc(C(F)(F)F)[nH]5)c4)ccc3[nH]2)cc1 [RAF-265 derivative] | 14.8 | -84.8
23 | Cc1ncc(NC(=O)c2cccc(C(F)(F)F)c2)cc1-c1cnc(OC2CCOCC2)c(N2CCOCC2)c1 [RAF-709] | 0.525 | -84.5
24 | Cc1cc(Nc2cc(NC(=O)c3c(Cl)cccc3Cl)ccn2)nc(N)n1 [RO495] | 1.18 | -74.4
25 | COc1cc(C(N)=O)ccc1NC(=O)[C@@H]1N[C@@H](CC(C)(C)C)[C@@]2(C(=O)Nc3cc(Cl)ccc32)[C@H]1c1cccc(Cl)c1F [RO8994] | 0.934 | -110
26 | COC(=O)c1ccc([C@H]2c3[nH]c4ccccc4c3C[C@H](C(=O)OC)N2C(=O)CCl)cc1 [RSL3] | 11.8 | -110
27 | COC1=CC(=C2C(=O)N\C(=N/C2=C1)C3=CC(=C(OCCO)C(=C3)C)C)OC [RVX-208] | 18.6 | -41.5

Row | Compound | AC50 cell viability (HCT116 [1]) [µM] | efficacy (HCT116 [2]) [%]
28 | COc1cc(OC)cc(N2CCN(C(=O)Nc3nc4cc(F)ccc4nc3OC)CC2)c1 [RX-5902 (SUPINOXIN)] | 2.63 | -60
29 | COCCCOc1ccnc(CS(=O)c2nc3ccccc3[n-]2)c1C.[Na+] (stereo not drawn) [Rabeprazole] | 16.6 | -43.4
30 | Cc1cnc(NC(=O)Nc2cc(Br)c(C)cc2OC[C@@H]2CNCCO2)cn1 [Rabusertib] | 16.6 | -103
31 | CC(C)(c1ccc(OCC(O)CO)cc1)c1ccc(OCC(O)CCl)cc1 (stereo not drawn) [Ralaniten (EPI-001)] | 18.6 | -37
32 | O=C(c1ccc(OCCN2CCCCC2)cc1)c1c(-c2ccc(O)cc2)sc2cc(O)ccc12 [Raloxifene hydrochloride] | 20.9 | -94.4
33 | C[N]1N=CC=C1NC2=NC=CC(=N2)C\3=C\C(=O)N(\C=C3)[C@H](CO)C4=CC(=C(Cl)C=C4)F [Ravoxertinib] | 14.8 | -116
34 | CO[C@@H]1[C@@H](O)[C@H](O)[C@@H](n2c3c(Cl)cccc3c3c4c(c5c6cccc(Cl)c6[nH]c5c32)C(=O)NC4=O)O[C@H]1CO [Rebeccamycin] | 0.934 | -88.9
35 | COc1cc(F)c(F)c(Nc2ccc(I)cc2F)c1N[S+](=O)([O-])C1(C[C@H](O)CO)CC1 [Refametinib] | 2.63 | -84.3
36 | CNC(=O)c1cc(Oc2ccc(NC(=O)Nc3ccc(Cl)c(C(F)(F)F)c3)c(F)c2)ccn1 [Regorafenib] | 5.25 | -85.3
37 | CONC(=O)Nc1ccc(-c2sc3c(c2CN(C)C)c(=O)n(-c2ccc(OC)nn2)c(=O)n3Cc2c(F)cccc2F)cc1 [Relugolix] | 23.5 | -67.3
38 | COC(=O)C1C2CC3c4[nH]c5cc(OC)ccc5c4CCN3CC2CC(OC(=O)c2cc(OC)c(OC)c(OC)c2)C1OC (stereo not drawn) [Reserpine] | 20.9 | -68.3
39 | CN(C)Cc1ccc([S+](=O)([O-])n2ccc(/C=C/C(=O)NO)c2)cc1 [Resminostat] | 2.35 | -103
40 | Oc1ccc(/C=C/c2cc(O)cc(O)c2)cc1 [Resveratrol] | 20.9 | -49.1
41 | C=CCNc1c(O)cc2c(O)c1C[C@@H](C)C[C@H](OC)[C@H](O)[C@@H](C)/C=C(/C)[C@H](OC(N)=O)[C@@H](OC)/C=C\C=C(\C)C(=O)N2 [Retaspimycin Hydrochloride] | 0.372 | -66.4
42 | c1nc2c(NC3CCCCC3)nc(Nc3ccc(N4CCOCC4)cc3)nc2[nH]1 [Reversine] | 6.61 | -114
43 | CO[C@H]1C[C@@H]2CC[C@@H](C)[C@@](O)(O2)C(=O)C(=O)N2CCCC[C@H]2C(=O)O[C@H]([C@H](C)C[C@@H]2CC[C@@H](OP(C)(C)=O)[C@H](OC)C2)CC(=O)[C@H](C)/C=C(\C)[C@@H](O)[C@@H](OC)C(=O)[C@H](C)C[C@H](C)/C=C/C=C/C=C/1C [Ridaforolimus] | 20.9 | -48.8
44 | CO[C@H]1/C=C/O[C@@]2(C)Oc3c(C)c(O)c4c(c3C2=O)C2=NC3(CCN(CC(C)C)CC3)NC2=C(NC(=O)/C(C)=C/C=C/[C@H](C)[C@H](O)[C@@H](C)[C@@H](O)[C@@H](C)[C@H](OC(C)=O)[C@@H]1C)C4=O [Rifabutin] | 23.5 | -60
45 | Nc1nc2ccc(OC(F)(F)F)cc2s1 [Riluzole] | 10.5 | -59.1
46 | Cc1c(C(=O)NN2CCCCC2)nn(-c2ccc(Cl)cc2Cl)c1-c1ccc(Cl)cc1 [Rimonabant] | 23.5 | -93.4
47 | CN1CCC(C1CO)C2=C(O)C=C(O)C3=C2O\C(=C/C3=O)C4=CC=CC=C4Cl (stereo not drawn) [Riviciclib (P276-00)] | 0.372 | -73.4
48 | C[S+](=O)([O-])c1ccc([C@@H](CC2CCCC2)C(=O)Nc2nccs2)cc1 [Ro-28-1675] | 23.5 | -67.1
49 | C=CC(=O)Nc1cccc(Nc2nc(Nc3ccc(N4CCN(C(C)=O)CC4)cc3OC)ncc2C(F)(F)F)c1 [Rociletinib] | 8.33 | -112
50 | C[C@@H](OC[C@@]1(c2ccccc2)CC[C@]2(CCC(=O)N2)CN1)c1cc(C(F)(F)F)cc(C(F)(F)F)c1 [Rolapitant] | 13.2 | -111
51 | C/C=C1\NC(=O)[C@H]2CSSCC/C=C\[C@H](CC(=O)N[C@H](C(C)C)C(=O)N2)OC(=O)[C@H](C(C)C)NC1=O [Romidepsin] | 0.00742 | -94.8
52 | C[C@@H](O)[C@@H](C)Oc1nc(Nc2ccc([S+](=N)([O-])C3CC3)cc2)ncc1C(F)(F)F (stereo partly drawn) [Roniciclib] | 18.6 | -94
53 | [O-]C(=O)C1=C(C(=C(Cl)C(=C1Cl)Cl)Cl)C/2=C/3\C=C(I)/C(=O)/C(=C3OC4=C2C=C(I)C(=C4I)[O-])I [Rose Bengal disodium] | 16.6 | -47
54 | C=C(C)[C@H]1Cc2c(ccc3c2O[C@@H]2COc4cc(OC)c(OC)cc4[C@@H]2C3=O)O1 [Rotenone] | 0.525 | -64.9
